Laboratory results published in PubChem BioAssay AID330 (DTP/NCI, 2004).
Where “and” joins values, the source holds several entries; their conditions need not be identical. Equal values may be shown once. Inconclusive results and toxic doses are left out.

System: P388 leukemia ip, CD2F1 mice, survival T/C
Experiment: NCI In Vivo Anticancer Drug Screen. Data for tumor model P388 Leukemia (intraperitoneal) in CD2F1 (CDF1) mice
Settings: endpoint: median survival time, higher = longer survival
Procedure, shortened: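 Mice carrying the transplanted tumor received test compound or vehicle. Survival was recorded in each group, and the value is the treated-group measurement divided by that of the vehicle-treated control group.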

[1] = dose: 100.0 mg/kg/injection, schedule: Q04DX003 (ip), vehicle: saline with Tween-80
[2] = dose: 200.0 mg/kg/injection, schedule: Q04DX003 (ip), vehicle: saline with Tween-80
[3] = dose: 50.0 mg/kg/injection, schedule: Q01DX005 (ip), vehicle: saline with Tween-80
[4] = dose: 100.0 mg/kg/injection, schedule: Q01DX005 (ip), vehicle: saline with Tween-80
[5] = dose: 200.0 mg/kg/injection, schedule: Q01DX005 (ip), vehicle: saline with Tween-80

NC(N)=NS(=O)(=O)c1ccc(NCc2c3ccccc3nc3ccccc23)cc1
T/C (dose: 3.12 mg/kg/injection, schedule: Q04DX002 (ip), vehicle: Klucel (hydroxypropylcellulose) (HPC)): 114 % of control | T/C (dose: 12.5 mg/kg/injection, schedule: Q04DX002 (ip), vehicle: Klucel (hydroxypropylcellulose) (HPC)): 165 % of control | T/C (dose: 25.0 mg/kg/injection, schedule: Q04DX002 (ip), vehicle: Klucel (hydroxypropylcellulose) (HPC)): 172 % of control | T/C (dose: 50.0 mg/kg/injection, schedule: Q04DX002 (ip), vehicle: Klucel (hydroxypropylcellulose) (HPC)): 166 % of control | T/C (dose: 50.0 mg/kg/injection, schedule: Q04DX003 (ip), vehicle: Klucel (hydroxypropylcellulose) (HPC)): 151 % of control and 156 % of control | T/C (dose: 100.0 mg/kg/injection, schedule: Q04DX002 (ip), vehicle: Klucel (hydroxypropylcellulose) (HPC)): 174 % of control | T/C (dose: 100.0 mg/kg/injection, schedule: Q04DX003 (ip), vehicle: Klucel (hydroxypropylcellulose) (HPC)): 168 % of control and 169 % of control | T/C (dose: 200.0 mg/kg/injection, schedule: Q04DX002 (ip), vehicle: Klucel (hydroxypropylcellulose) (HPC)): 151 % of control | T/C (dose: 200.0 mg/kg/injection, schedule: Q04DX003 (ip), vehicle: Klucel (hydroxypropylcellulose) (HPC)): 174 % of control and 180 % of control | T/C (dose: 400.0 mg/kg/injection, schedule: Q04DX002 (ip), vehicle: Klucel (hydroxypropylcellulose) (HPC)): 169 % of control | T/C (dose: 400.0 mg/kg/injection, schedule: Q04DX003 (ip), vehicle: Klucel (hydroxypropylcellulose) (HPC)): 155 % of control and 202 % of control and 207 % of control | T/C (dose: 800.0 mg/kg/injection, schedule: Q04DX002 (ip), vehicle: Klucel (hydroxypropylcellulose) (HPC)): 161 % of control | T/C (dose: 800.0 mg/kg/injection, schedule: Q04DX003 (ip), vehicle: Klucel (hydroxypropylcellulose) (HPC)): 162 % of control and 210 % of control and 250 % of control

CC(=O)OC1CCCCC1C (stereo not given)
T/C (dose: 50.0 mg/kg/injection, schedule: Q01DX009 (ip), vehicle: saline with Tween-80): 113 % of control | T/C (dose: 50.0 mg/kg/injection, schedule: Q04DX003 (ip), vehicle: saline with Tween-80): 105 % of control | T/C (dose: 100.0 mg/kg/injection, schedule: Q01DX009 (ip), vehicle: saline with Tween-80): 118 % of control | T/C [1]: 110 % of control | T/C (dose: 200.0 mg/kg/injection, schedule: Q01DX009 (ip), vehicle: saline with Tween-80): 109 % of control | T/C [2]: 110 % of control

CN=C1c2ccccc2C2(c3ccccc3)C1N2C (stereo not given)
T/C [1]: 104 % of control | T/C [2]: 100 % of control

COc1ccc(C(C)c2cc3c(cc2OCC(C)=O)OCO3)cc1 (stereo not given)
T/C (dose: 60.0 mg/kg/injection, schedule: Q01DX005 (ip), vehicle: saline with Tween-80): 97 % of control | T/C (dose: 120.0 mg/kg/injection, schedule: Q01DX005 (ip), vehicle: saline with Tween-80): 94 % of control | T/C (dose: 240.0 mg/kg/injection, schedule: Q01DX005 (ip), vehicle: saline with Tween-80): 94 % of control

CC1N=NNN1C (stereo not given)
T/C [3]: 109 % of control | T/C [4]: 109 % of control | T/C [5]: 100 % of control

CNC(=S)NNc1cccc([N+](=O)[O-])c1
T/C (dose: 25.0 mg/kg/injection, schedule: Q01DX009 (ip), vehicle: other): 96 % of control | T/C (dose: 50.0 mg/kg/injection, schedule: Q01DX009 (ip), vehicle: other): 106 % of control | T/C (dose: 100.0 mg/kg/injection, schedule: Q01DX009 (ip), vehicle: other): 91 % of control | T/C (dose: 200.0 mg/kg/injection, schedule: Q01DX009 (ip), vehicle: other): 92 % of control

COc1ccc2c(c1)c(CBr)c(C)c[n+]2[O-]
T/C (dose: 6.25 mg/kg/injection, schedule: Q01DX005 (ip), vehicle: Klucel (hydroxypropylcellulose) (HPC)): 104 % of control | T/C (dose: 12.5 mg/kg/injection, schedule: Q01DX005 (ip), vehicle: Klucel (hydroxypropylcellulose) (HPC)): 102 % of control | T/C (dose: 50.0 mg/kg/injection, schedule: Q01DX005 (ip), vehicle: Klucel (hydroxypropylcellulose) (HPC)): 86 % of control

Nc1nc(Br)nc2c1ncn2C1CC(O)C(CO)O1 (stereo not given)
T/C (dose: 1.5 mg/kg/injection, schedule: Q01DX005 (ip), vehicle: suspension in saline): 118 % of control | T/C (dose: 3.0 mg/kg/injection, schedule: Q01DX005 (ip), vehicle: suspension in saline): 121 % of control | T/C (dose: 15.0 mg/kg/injection, schedule: Q01DX005 (ip), vehicle: suspension in saline): 108 % of control | T/C (dose: 15.0 mg/kg/injection, schedule: Q03HX009 (ip), vehicle: saline): 153 % of control and 155 % of control | T/C (dose: 30.0 mg/kg/injection, schedule: Q03HX009 (ip), vehicle: saline with Tween-80): 164 % of control | T/C (dose: 30.0 mg/kg/injection, schedule: Q03HX009 (ip), vehicle: saline): 167 % of control and 181 % of control | T/C (dose: 60.0 mg/kg/injection, schedule: Q01DX005 (ip), vehicle: suspension in saline): 117 % of control | T/C (dose: 60.0 mg/kg/injection, schedule: Q03HX009 (ip), vehicle: saline with Tween-80): 155 % of control | T/C (dose: 60.0 mg/kg/injection, schedule: Q03HX009 (ip), vehicle: saline): 165 % of control and 172 % of control | T/C (dose: 120.0 mg/kg/injection, schedule: Q01DX005 (ip), vehicle: suspension in saline): 122 % of control | T/C (dose: 120.0 mg/kg/injection, schedule: Q03HX009 (ip), vehicle: saline with Tween-80): 157 % of control | T/C (dose: 120.0 mg/kg/injection, schedule: Q03HX009 (ip), vehicle: saline): 172 % of control

COc1c(C)cc(C)c(CCl)c1-c1c(CCl)c(C)cc(C)c1OC
T/C (dose: 100.0 mg/kg/injection, schedule: Q01DX001 (ip), vehicle: Klucel (hydroxypropylcellulose) (HPC)): 90 % of control | T/C (dose: 200.0 mg/kg/injection, schedule: Q01DX001 (ip), vehicle: Klucel (hydroxypropylcellulose) (HPC)): 93 % of control

COC(=O)/C=c1\sc2n(c1=O)CCCCN=2
T/C (dose: 60.0 mg/kg/injection, schedule: Q01DX005 (ip), vehicle: Klucel (hydroxypropylcellulose) (HPC)): 86 % of control | T/C (dose: 120.0 mg/kg/injection, schedule: Q01DX005 (ip), vehicle: Klucel (hydroxypropylcellulose) (HPC)): 93 % of control | T/C (dose: 240.0 mg/kg/injection, schedule: Q01DX005 (ip), vehicle: Klucel (hydroxypropylcellulose) (HPC)): 100 % of control

CC(=O)Nc1ccc(Nc2ccc(NCCO)c3c2C(=O)c2c(O)ccc(O)c2C3=O)cc1
T/C (dose: 25.0 mg/kg/injection, schedule: Q04DX002 (ip), vehicle: saline with Tween-80): 96 % of control | T/C (dose: 50.0 mg/kg/injection, schedule: Q04DX002 (ip), vehicle: saline with Tween-80): 96 % of control | T/C (dose: 100.0 mg/kg/injection, schedule: Q04DX002 (ip), vehicle: saline with Tween-80): 100 % of control | T/C (dose: 200.0 mg/kg/injection, schedule: Q04DX002 (ip), vehicle: saline with Tween-80): 100 % of control

CSc1nc(COC(=O)NC(C)C)c(COC(=O)NC(C)C)n1Cc1ccccc1
T/C (dose: 12.5 mg/kg/injection, schedule: Q01DX005 (ip), vehicle: saline with Tween-80): 98 % of control | T/C (dose: 25.0 mg/kg/injection, schedule: Q01DX005 (ip), vehicle: saline with Tween-80): 101 % of control | T/C [3]: 100 % of control and 110 % of control | T/C [4]: 98 % of control and 111 % of control | T/C [5]: 116 % of control

CC(=O)NCc1ccc(N2C(N)=NC(N)=NC2(C)C)cc1
T/C (dose: 25.0 mg/kg/injection, schedule: Q04DX002 (ip), vehicle: saline): 100 % of control | T/C (dose: 50.0 mg/kg/injection, schedule: Q04DX002 (ip), vehicle: saline): 116 % of control | T/C (dose: 100.0 mg/kg/injection, schedule: Q04DX002 (ip), vehicle: saline): 100 % of control

OCCNCCN=C1CCC(=NCCNCCO)CC1
T/C (dose: 50.0 mg/kg/injection, schedule: Q01DX005 (ip), vehicle: saline): 107 % of control | T/C (dose: 100.0 mg/kg/injection, schedule: Q01DX005 (ip), vehicle: saline): 105 % of control

Cc1nn(C)c(=O)c2c3ccccc3nn12
T/C (dose: 100.0 mg/kg/injection, schedule: Q01DX001 (ip), vehicle: saline with Tween-80): 100 % of control | T/C (dose: 200.0 mg/kg/injection, schedule: Q01DX001 (ip), vehicle: saline with Tween-80): 95 % of control | T/C (dose: 400.0 mg/kg/injection, schedule: Q01DX001 (ip), vehicle: saline with Tween-80): 100 % of control

CC1(C)OCC(CO)(Nc2nc(N3CC3)nc(N3CC3)n2)CO1
T/C (dose: 0.62 mg/kg/injection, schedule: Q01DX009 (ip), vehicle: saline): 120 % of control | T/C (dose: 1.25 mg/kg/injection, schedule: Q01DX009 (ip), vehicle: saline): 158 % of control and 164 % of control | T/C (dose: 2.5 mg/kg/injection, schedule: Q01DX009 (ip), vehicle: saline): 199 % of control and 229 % of control | T/C (dose: 3.75 mg/kg/injection, schedule: Q01DX009 (ip), vehicle: saline): 187 % of control | T/C (dose: 5.0 mg/kg/injection, schedule: Q01DX009 (ip), vehicle: saline): 89 % of control and 98 % of control

[Cu+2].[NH-]C(CO)C(=O)O.[NH-]C(Cc1cnc[nH]1)C(=O)O (stereo not given)
T/C (dose: 6.25 mg/kg/injection, schedule: Q01DX009 (ip), vehicle: saline): 97 % of control | T/C (dose: 25.0 mg/kg/injection, schedule: Q01DX009 (ip), vehicle: saline): 114 % of control
